Assay results as given in publication PMC4163096 (Bioorganic & medicinal chemistry letters, 2014).
Like-named read-outs stand apart in the source and are kept apart here.

How the values were obtained:
TSPO [1] = target: T1, TSPO (Rattus norvegicus, UniProt P16257); conditions: cited from earlier work; for Ki: read-out: Ki for TSPO in C6 glioma, C6 glioma
[2] = Radio-TLC analysis of plasma samples taken during PET scan; format: in vivo, male Wistar rats; conditions: samples at 2, 12, 30, 60 min, n=2, preliminary
TSPO [3] = target: T1, TSPO; assay: Radiometric TSPO binding assay, [3H]PK11195 displacement in heart lysate; parameters: species or system athymic nude rat; conditions: for Ki: read-out: Heart Ki, versus [3H]PK11195, Ki ± S.E.M., triplicate
TSPO [4] = target: T1, TSPO; assay: Radiometric TSPO binding assay, [3H]PK11195 displacement in kidney lysate; parameters: species or system athymic nude rat; conditions: read-out: Kidney Ki, low-affinity binding (mixed affinity binding), versus [3H]PK11195, Ki ± S.E.M., low-affinity component

For CCc1cc(CC)n2nc(-c3ccc(OCCF)cc3)c(CC(=O)N(CC)CC)c2n1 [2b], the Ki (TSPO [1]) is given as 0.27 nM.

In the case of CCc1cc(CC)n2nc(-c3ccc(OCC[18F])cc3)c(CC(=O)N(CC)CC)c2n1 [[^18F]-2b, 2-(5,7-diethyl-2-(4-(2-[^18F]fluoroethoxy)phenyl)pyrazolo[1,5-a]pyrimidin-3-yl)-N,N– diethylacetamide], the “enhancement in affinity compared to [18F]-2a” value (TSPO [1]; TSPO affinity) is given as 36 fold.

With CN(C)C(=O)Cc1nn(-c2cccc([18F])n2)c(=O)c2c1c1ccc(Cl)cc1n2C [[^18F]-14, 7-chloro-N,N,5-trimethyl-4-oxo-3(6-[^18F]fluoropyridin-2-yl)-3,5-dihydro-4H-pyridazino[4,5-b]indole-1-acetamide] the “% parent at 60 min” value [2] was greater than 90%.

In the case of COc1ccc(OC)c(CN(C(=O)CF)c2ccccc2Oc2ccccc2)c1 [compound 1], the Ki (TSPO [1]) is listed as 6.17 nM.

Work on CN(C)C(=O)Cc1nn(-c2cccc([N+](=O)[O-])c2)c(=O)c2c1c1ccc(Cl)cc1n2C [compound 11] yielded a Ki (TSPO [3]) of 0.00118 ± 9e-05 nM.

Compound CN(C)C(=O)Cc1nn(-c2ccc(F)cc2)c(=O)c2c1c1ccc(Cl)cc1n2C [compound 12] has a Ki (TSPO [4]) of 0.969 nM.

For CN(C)C(=O)Cc1nn(-c2ccccn2)c(=O)c2c1c1ccc(Cl)cc1n2C [compound 13], the Ki (TSPO [3]) was 4.94 ± 0.662 nM and the “Heart Ki” value (TSPO [3]; versus [3H]PK11195, Ki ± S.E.M., triplicate) was “did not appreciably bind TSPO”.
